# Experimental data: patent US20060014723A1, “Anti-parasitic uses of borinic acid complexes” (priority 2004, published 2006)
# Columns and labels:
# P. falciparum K1 = experiment: Malaria in vitro screening model (3H-hypoxanthine incorporation); type: cell-based, Plasmodium falciparum; conditions: for IC50: Plasmodium falciparum, K1
# Protocol: […] P. falciparum K1 is used in this study. K1 (a clone originating from Thailand) is resistant to chloroquine and pyrimethamine. The strains are maintained in RPMI 1640 medium with 0.36 mM hypoxanthine, supplemented with 25 mM N 2-hydroxyethyipiperazine-N-2-ethane-sulphonic acid (HEPES), 25 mM NaHCO3, neomycin (100 U/mL) and 5 g/L of ALBUMAX® II (lipid-rich bovine serum albumin, GIBCO, Grand Island, N.Y., USA), together with 5% washed human A+ erythrocytes. All cultures and assays are conducted at 37° C. under an atmosphere of 4% CO2, 3% O2 and 93% N2. Cultures are kept in incubation chambers filled with the gas mixture. Subcultures are diluted to a parasitemia of between 0.1 and 0.5% and the medium is changed daily.
# Antimalarial activity is assessed using an adaptation of the procedures described by Desjardins et al. (Antimicrob. Agents Chemother. 16:710-718, 1979), and Matile and Pink (In: Lefkovits, I. and Pernis, B. (Eds.), Immunological Methods Vol. IV, Academic Press, San Diego, pp. 221-234, 1990).
# Stock drug solutions are prepared in 100% dimethylsulfoxide (DMSO) at 10 mg/mL, and heated or sonicated if necessary to dissolve the sample. After use, the stocks are kept at −20° C. For the assays, the compound is further diluted in serum-free culture medium and finally to the appropriate concentration in complete medium without hypoxanthine.
# Assays are performed in sterile 96-well microtiter plates, each well containing 200 μl of parasite culture (0.15% parasitemia, 2.5% hematocrit) with or without serial drug solutions. Seven 2-fold dilutions are used, covering a range from […] to 0.078 μg/mL. For active compounds the highest concentration is lowered (e.g., to […]); for plant extracts the highest concentration is increased to 50 μg/mL. […] After 48 hours of incubation at 37° C., 0.5 μCi ^3H-hypoxanthine is added to each well. Cultures are incubated for a further 24 h before being harvested onto glass-fiber filters and washed with distilled water. The radioactivity is counted using a Betaplate liquid scintillation counter (Wallac, Zurich, Switzerland). The results are recorded as counts per minute per well at each drug concentration and expressed as percentage of the untreated controls. IC50 values are calculated from the sigmoidal inhibition curves using Microsoft EXCEL.
# [1] = test system: T. b. rhodesiense STIB 900; experiment: African sleeping sickness in vitro screening model (Alamar Blue); type: cell-based, Trypanosoma brucei rhodesiense; conditions: for IC50: Trypanosoma brucei
# Protocol: Bloodstream from trypomastigotes of the strains (a) and (c) are maintained in Minimal Essential Medium (MEM) with Earle's salts supplemented according to Baltz, et al., (EMBO J. 4:1273-1277, 1985) with 25 mM N-2-hydroxyethylpiperazine-N′-2-ethane-sulphonic acid (HEPES), 1 g/L additional glucose, 1% MEM non-essential amino acids (100×), 0.2 mM 2-mercaptoethanol, 2 mM sodium pyruvate, 0.1 mM hypoxanthine and 15% heat-inactivated horse serum.
# All cultures and assays are conducted at 37° C. under an atmosphere of 5% CO2 in air.
# After use the stocks are kept at −20° C. For the assays, the compound is further diluted in serum-free culture medium and finally to the appropriate concentration in complete medium without hypoxanthine.
# Assays are performed in 96-well microtiter plates, each well containing 100 μL of culture medium with 8×10^3 bloodstream forms with or without a serial drug dilution. The highest concentration for the test compounds is 90 μg/mL. Seven 3-fold drug dilutions are used, covering a range from 90 μg/mL to 0.123 μg/mL. Each drug is tested in duplicate. Active compounds are tested twice for confirmation. The final result is the mean of the four individual IC50 values. After 72 hrs of incubation, the plates are inspected under an inverted microscope to assure growth of the controls and sterile conditions.
# Ten μL of Alamar Blue (12.5 mg resazurin dissolved in 100 mL distilled water) are now added to each well and the plates are incubated for another 2 hours. Then the plates are read with a Spectramax GEMINI XS microplate fluorometer (Molecular Devices Cooperation, Sunnyvale, Calif., USA) using an excitation wavelength of 536 nm and an emission wave length of 588 nm.
# IC50 values are determined using the microplate reader software Softmax Pro (Molecular Devices Cooperation, Sunnyvale, Calif., USA).
# [2] = test system: Trypanosoma cruzi Tulahuen C2C4 strain; experiment: Chagas disease in vitro screening model (beta-galactosidase strain in L-6 cells); type: cell-based; conditions: for IC50: Trypanosoma cruzi, TULAHUEN, L6, read-out: T. cruzi IC50
# Protocol: Trypanosoma cruzi Tulahuen C2C4 strain, containing the β-galactosidase (Lac Z) gene (Buckner et al., Antimicrob. Agents Chemother 40:2592-2597, 1996) is used for this study.
# The infective amastigote and trypomastigote stages are cultivated in L-6 cells (a rat skeletal myoblast cell line) in RPMI 1640 medium supplemented with 2 mM L-glutamine and 10% heat-inactivated fetal bovine serum in 12.5 cm^2 tissue culture flasks. Amastigotes develop intracellularly, differentiate into trypomastigotes, and leave the host cell. These trypomastigotes infect new L-6 cells and are the stages used to initiate an infection in the assay. All cultures and assays are conducted at 37° C. under an atmosphere of 5% CO2 in air.
# (§1) After use the stocks are kept at −20° C. For the assays, the compound is further diluted to the appropriate concentration using complete medium.
# Assays are performed in sterile 96-well microtiter plates, each well containing 100 μl medium with 2×10^3 L-6 cells. After 24 hours, […] of a trypanosome suspension containing 5×10^3 trypomastigote bloodstream forms from culture are added to the wells. Forty-eight hours later, the medium is removed from the wells and replaced by […] fresh medium, with or without a serial drug dilution. At this point the L-6 cells should be infected with amastigotes and no free trypomastigotes should be in the medium. Seven 3-fold drug dilutions are used, covering a range from 90 μg/mL to 0.123 μg/mL. Each drug is tested in duplicate. Active compounds are tested twice for confirmation. After 96 hours of incubation the plates are inspected under an inverted microscope to assure growth of the controls and sterility.
# Then the substrate CPRG/Nonidet (50 μl) is added to all wells. A colour reaction will become visible within 2-6 hours and can be read photometrically at 540 nm. Data are transferred into a graphics program (e.g., EXCEL), sigmoidal inhibition curves determined and IC50 values calculated.
# [3] = test system: Leishmania donovani strain MHOM/ET1671L82; experiment: Leishmaniasis in vitro screening model (axenic amastigotes, Alamar Blue); type: cell-based; conditions: for IC50: Leishmania donovani, read-out: L. donovani IC50
# Protocol: The Leishmania donovani strain MHOM/ET1671L82 (obtained from Dr. S. Croft, London School of Hygiene and Tropical Medicine) is used. The strain is maintained in the Syrian Golden hamster. Amastigotes are collected from the spleen of an infected hamster. Amastigotes are grown in axenic culture at 37° C. in SM medium (Cunningham I., J. Protozoal. 24:325-329, 1977) at pH 5.4 supplemented with 10% heat-inactivated fetal bovine serum (FBS) under an atmosphere of 5% CO2 in air.
# as §1
# Assays are performed in 96-well flat-bottom microtiter plates (Costar, Corning Inc.), each well containing 100 μl of culture medium with 105 amastigotes from axenic culture with or without a serial drug dilution. Concentration of amastigotes is determined in a CASY cell analyzing system (Scharfe System, Reutlingen, Germany). Before the amastigotes are counted, the parasite culture is passed twice through a 22-gauge needle to break up clusters of amastigotes.
# The highest concentration for the test compounds is 90 μg/mL. Seven 3-fold dilutions are used, covering a range from […]. Each drug is tested in duplicate. Active compounds are tested twice for confirmation. After 72 hours of incubation, the plates are inspected under an inverted microscope to assure growth of the controls and sterile conditions.
# Ten μL of Alamar Blue (12.5 mg resazurin dissolved in 100 mL distilled water) are then added to each well and the plates are incubated for another 2 hours. Then the plates are read with a Spectramax GEMINI XS microplate fluorometer (Molecular Devices Cooperation, Sunnyvale, Calif., USA) using an excitation wave length of 536 nm and an emission wave length of 588 nm.
# Data are analyzed using the microplate reader software Softmax Pro (Molecular Devices Cooperation, Sunnyvale, Calif., USA). Decrease of fluorescence (i.e. inhibition) is expressed as percentage of the fluorescence of control cultures and plotted against the drug concentrations. The IC50 value is calculated from the sigmoidal inhibition curve by the software program.
Compound,IC50 (P. falciparum K1) [µg/mL],IC50 [1] [µg/mL],IC50 [2] [µg/mL],IC50 [3] [µg/mL],P. falciparum IC50 (P. falciparum K1) [µg/mL],T. b. rhodesiense IC50 [1] [µg/mL],T. cruzi IC50 [2] [µg/mL],L. donovani IC50 [3] [µg/mL]
"N#Cc1ccc(B(Oc2cccc3cccnc23)c2ccc(F)cc2)cc1 [Compound 22, (4-Cyanophenyl)(4-fluorophenyl)borinic acid quinolin-8-yl ester]",1.46,0.325,0.845,0.34,–,–,–,–
"Fc1cccc(B(Oc2cccc3cccnc23)c2ccc(Cl)cc2)c1F [Compound 42, (4-Chlorophenyl)(2,3-difluorophenyl)borinic acid quinolin-8-yl ester]",1.83,0.47,1.04,0.43,–,–,–,–
Nc1cccc(C(=O)OB(c2ccc(Cl)cc2)c2ccc(Cl)cc2)n1 [Compound 50],–,–,–,–,0.6115,9.45,0.135,0.23
"N#Cc1ccc(B(Oc2cccc3cccnc23)c2cccc(Cl)c2)cc1 [Compound 26, (3-Chlorophenyl)(4-cyanophenyl)borinic acid quinolin-8-yl ester]",1.4,0.29,–,0.41,1.44,0.21,–,0.55
"Fc1ccc(B(Oc2cccc3cccnc23)c2cccc(Cl)c2)cc1 [Compound 14, (3-Chlorophenyl)(4-fluorophenyl)borinic acid quinolin-8-yl ester]",1.9,0.5,–,0.37,1.93,0.28,–,0.48
Cc1cc(Cl)ccc1B(OC(=O)c1ncccc1O)c1ccc(Cl)cc1C [Compound 134],–,–,–,–,–,1.7,3.6,0.12
Cc1ccc(B(OC(=O)c2ncccc2C(=O)O)c2ccc(C)c(Cl)c2)cc1Cl [Compound 128],–,–,–,–,–,8,1.75,0.61
Cc1cccc(B(Oc2cccc3cccnc23)c2cccc(C)c2)c1 [Compound 86],–,–,–,–,–,0.35,3,0.59
Clc1cccc(B(Oc2cccc3cccnc23)c2cccnc2)c1 [Compound 99],–,–,–,–,–,0.345,4.45,0.49
CC1CCN(S(=O)(=O)c2ccc(B(Oc3cccc4cccnc34)c3ccc(Cl)cc3)cc2)CC1 [Compound 111],–,–,–,–,–,0.552,4.15,0.74
"Cc1ccc(B(OC(=O)c2ncccc2O)c2ccc(C)c(Cl)c2)cc1Cl [Compound 127, Bis(3-Chloro-4-methylphenyl)borinic acid 3-hydroxypicolinate ester]",–,–,–,–,–,2.5,6.3,0.36
Clc1ccc(B(Oc2c(I)cc(Cl)c3cccnc23)c2ccc(Cl)cc2)cc1 [Compound 90],–,–,–,–,–,1.4,3.25,0.15
Cc1cc(C)c2cccnc2c1OB(c1ccc(F)cc1)c1ccc(Cl)cc1 [Compound 91],–,–,–,–,–,0.36,4.3,0.94
N#Cc1cccc(B(Oc2cccc3cccnc23)c2cccnc2)c1 [Compound 102],–,–,–,–,–,0.49,4.2,0.37
C=CB(Oc1cccc2cccnc12)c1ccc(CN(C)C)cc1.Cl [Compound 124],–,–,–,–,–,0.445,3.95,0.3
